Experimental data from patent US11046647B2, “Activators of the unfolded protein response” (The Board of Trustees of the University of Illinois, priority 2018, dated 2021).

Legend:
[1] = test system: CaOV-3 ovarian cancer cells; experiment: Automated Trypan Blue exclusion cell death assay, Caov-3; format: cell-based, human; settings: 24 hours
Experimental: FIG. 33. 105, but not BHPI, kills therapy-resistant ovarian CaOV-3 ovarian cancer cells. (±)-105; Cell death assay: Automated Trypan Blue exclusion. (24 hours post (±)-105)
(§1) TRYPAN BLUE: For decades, viable cells have been measured by their ability to exclude the dye Trypan Blue. […] Dead cells, which have lost membrane integrity, take up the dye and are blue. Thus, the percentage of dead cells is the percentage of cells that are Trypan Blue positive out of the total cell population. Quantitative assessment of Trypan Blue uptake uses a cell counter from Fisher. Since the assay is instrument based, there is no observer bias in determining the percentage of Trypan Blue positive cells.
TRYPAN BLUE ASSAYS: Assays are performed on cells in 6 well plates: 300,000 cells are plated in each well of a 6-well plate in 3 ml of medium. After 24 hours, the DMSO vehicle or the indicated compound is added (in 1000th of the vol.) The cells incubated for an additional 24 hours, and then harvested in 0.25 ml of trypsin, followed after harvest by 0.75 ml of medium. The cells are spun down and resuspended in 100-200 μl of medium left that is over the cell pellet (resuspend cells by pipetting up and down a few times). Add 10 μl to 10 μl of trypan blue. Then 10 μl is inserted into the counting slide. […]

TYS-Luc cells [2] = experiment: Long-term cell culture experiment (treat 2 weeks, regrow 4 weeks), MTS, TYS-Luc; format: cell-based, human; settings: 1 μM for 2 weeks, then 4 weeks without drug
Experimental: To simulate the effect of several weeks of treatment of a tumor in a mouse xenograft, long-term cell culture experiments were performed. TYS-Luc cells (T47DERαY537S-Luc cells; ERαY537S is the most lethal ERα mutation seen in metastatic breast cancer) were plated at 4,000 cells/well in 96 well plates. […] After 2 weeks (medium change every 2 days) cell number was determined using MTS and a standard curve of absorbance versus cell number for TYS-Luc cells. Notes: (i) Bars denote the BHPI and (−)-105 arms of the experiment. No drug is present during regrow. […] This allows any surviving cells to regrow. After 4 weeks the cells were assayed using MTS. […] (Note: Visual inspection of the wells confirmed that there were no cells in the well treated for 2 weeks with active (−)-105.) To test whether the cells that regrew after BHPI treatment were resistant to BHPI they were re-treated for another cycle (BHPI Retreat) and shown to retain sensitivity to BHPI killing. (n=8 biological replicates ±SEM.

[3] = test system: ERα Negative MCF-10A cells; experiment: Trypan Blue exclusion cell death assay, MCF-10A; format: cell-based; settings: 75 nM, 24 hours
From the text: as §1
TRYPAN BLUE ASSAYS: Assays are performed on cells in 6 well plates: 300,000 cells are plated in each well of a 6-well plate in 3 ml of medium. After 24 hours, the DMSO vehicle or the indicated compound is added (in 1000th of the vol.) The cells incubated for an additional 24 hours, and then harvested in 0.25 ml of trypsin, followed after harvest by 0.75 ml of medium. The cells are spun down and resuspended in 100-200 μl of medium left that is over the cell pellet (resuspend cells by pipetting up and down a few times). Add 10 μl to 10 μl of trypan blue. Then 10 μl is inserted into the counting slide. After inserting the slide into the Fisher TC20 counting is automatic (these many cells are needed because an accurate ratio of Trypan Blue positive to Trypan Blue negative cells requires about 200 cells in the field the instrument counts).
In FIG. 28, neither the test compounds nor BHPI kill non-tumorigenic ERα Negative MCF-10A breast cells. ERα Negative MCF-10A cells were maintained for 24 hours in DMSO vehicle or 75 nM of BHPI or 75 nM of each of the indicated test compounds: 4, 6 and 105. Cell death was determined using the instrument-based Trypan Blue exclusion assay. (n=3±SEM).

parental T47D cells = experiment: MTS growth assay, parental T47D cells; format: cell-based, human; settings: 100 nM and 1 μM; 4 days
Experimental: (§2) ERα containing T47D human breast cancer cells able to survive in 1 μM BHPI were selected by clonal outgrowth. The effect of 100 nM and 1 μM BHPI and (−)-105 on growth of the (BHPI-sensitive) parental T47D cells and partially BHPI-resistant T47D clones 1,3,8, and 11 was evaluated. 4,000 cells/well were plated. Cell number was determined by MTS assay from a standard curve of absorbance versus cell number. […] Thus, in 4 days (−)-105 killed some, but not all, of the resistant cells.

T47D, TYS and TDG cells = experiment: MTS proliferation assay (4 days), T47D, TYS and TDG; format: cell-based, human
Experimental: FIG. 30 compares the ability of BHPI and test compounds to inhibit proliferation of T47D, TYS and TDG cells. T47D cells were in medium containing 10 FBS (which contains estrogen), TYS-4 and TDG-1 cells were in medium containing 10% cd-FBS (estrogen depleted). Cells are plated at 2,000 cells/well in 96 well plates. After 24 hours in medium containing FBS or charcoal-dextran treated FBS (depleted of endogenous estrogens), the indicated concentration of each compound (in DMSO at 1/1000th of the volume of medium) was added. After 2 days the medium was changed, and the compounds were added again. After 2 additional days (4 days total) MTS assays are used to evaluate cell proliferation. (n=6 ±S.E.M.).

[4] = test system: partially BHPI-resistant T47D clones 1,3,8, and 11; experiment: MTS growth assay, partially BHPI-resistant T47D clones; format: cell-based, human; settings: 100 nM and 1 μM; 4 days
Experimental: as §2

[5] = test system: ERα positive breast cancer; experiment: Mouse xenograft model of ERα positive breast cancer (BHPI); format: in vivo; settings: reasonable doses
[6] = test system: TYS-Luc and TDG-Luc cells; experiment: Xenograft studies using TYS-Luc and TDG-Luc cells (BHPI); format: in vivo, mouse; settings: after 4 weeks
From the text: In xenograft studies using TYS-Luc and TDG-Luc cells after 4 weeks the vehicle control breast tumors had roughly quadrupled in cells.

TYS-Luc cells [7] = experiment: Cell death with or without thapsigargin, TYS-Luc; format: cell-based, human; settings: 1 hour
From the text: TYS-Luc cells were maintained in DMSO vehicle (Veh) or BHPI, or (−)-105 with or without thapsigargin (THG) for the indicated times. Blocking the decline in ATP levels (FIG. 19) with THG inhibited (−)-105-induced cell death.

[8] = test system: intracellular ATP levels in TYS-Luc cells; experiment: Intracellular ATP levels, TYS-Luc cells; format: cell-based, human; settings: 10,000 nM thapsigargin, 1 hr
Experimental: TYS-Luc cells were maintained DMSO vehicle (Veh), 1,000 nM BHPI, 1,000 nM (−)-105 with and without 10,000 nM thapsigargin (THG) for the indicated times. ATP levels were determines using a kit and relative ATP levels were from a standard curve. […] (n=3±SEM).

Cc1cccc2c1NC(=O)C2(c1ccc(O)cc1)c1ccc(O)cc1 [BHPI, reference compound]
killing of Caov-3 cells [1]: blocks growth of Caov-3 cells but does not kill them | tumor growth / detectability (OVCAR-3 cells; OVCAR-3 orthotopic xenograft): strongly reduced tumor growth | tolerability in mice (OVCAR-3 cells; both xenograft studies): well tolerated | regrowth of cells after drug removal (TYS-Luc cells [2]): robust regrowth | cell death of MCF-10A cells [3]: neither BHPI nor any of the test compounds induce significant death | effect on growth / cell number (parental T47D cells): blocked growth and killed many of the T47D cells | inhibition of proliferation (T47D, TYS and TDG cells): effectively inhibit proliferation | effect on growth / cell number [4]: inhibited growth but could not stop growth of the resistant clones | tumor growth [5]: stopped tumor growth and induced rapid and substantial tumor regression | tumor regression [6]: 97%-99.5%

C/C=C(/C)C(=O)O[C@H]1C(C)=C2[C@H]([C@@H]1OC(=O)CCCCCCC)[C@@](C)(OC(C)=O)C[C@H](OC(=O)CCC)[C@@]1(O)[C@H]2OC(=O)[C@@]1(C)O [THG, thapsigargin, reference compound]
inhibition of (−)-105-induced cell death (TYS-Luc cells [7]): strong inhibition | block of (−)-105-induced decline in intracellular ATP levels [8]: completely blocked
